Test results from patent US6949383B2 (priority 1998, dated 2005).

Tests used:
Format in all cases: cell-based, Escherichia coli
[1] = test system: Super-Oflo.-resisting dnaQ; test: Minimum growth inhibiting concentration (MIC) of antibiotic substances
[2] = test system: dnaQ
[3] = test system: Wild-Type
[4] = test system: dnaQ49 strain; test: Drug resistance reached by repeated mutagenesis and selection (Example 2)

## CC1COc2c(N3CCN(C)CC3)c(F)cc3c(=O)c(C(=O)O)cn1c23 (centres unmarked) [Ofloxacin]
[1]
  Minimum growth inhibiting concentration (MIC): 1024
[2]
  Minimum growth inhibiting concentration (MIC): 0.0156
[3]
  Minimum growth inhibiting concentration (MIC): 0.0625
[4]; mutagenesis treatment for 1 time
  Concentration of Ofloxacin: 0.001 µg/mL
[4]; mutagenesis treatments for 2 times
  Concentration of Ofloxacin: 0.01 µg/mL
[4]; mutagenesis treatments for 3 times
  Concentration of Ofloxacin: 0.1 µg/mL
[4]; mutagenesis treatments for 4 times
  Concentration of Ofloxacin: 1 µg/mL
[4]; mutagenesis treatments for 5 times
  Concentration of Ofloxacin: 10 µg/mL
[4]; mutagenesis treatments for 6 times
  Concentration of Ofloxacin: 30 µg/mL
[4]; mutagenesis treatments for 7 times
  Concentration of Ofloxacin: 50 µg/mL
[4]; mutagenesis treatments for 8 times
  Concentration of Ofloxacin: 60 µg/mL
[4]; mutagenesis treatments for 9 times
  Concentration of Ofloxacin: 70 µg/mL
[4]; mutagenesis treatments for 10 times
  Concentration of Ofloxacin: 80 µg/mL
[4]; mutagenesis treatments for 11 times
  Concentration of Ofloxacin: 90 µg/mL
[4]; mutagenesis treatments for 12 times
  Concentration of Ofloxacin: 100 µg/mL
[4]; mutagenesis treatments for 13 times
  Concentration of Ofloxacin: 120 µg/mL
[4]; mutagenesis treatments for 14 times
  Concentration of Ofloxacin: 132 µg/mL
[4]; mutagenesis treatments for 15 times
  Concentration of Ofloxacin: 144 µg/mL
[4]; mutagenesis treatments for 16 times
  Concentration of Ofloxacin: 150 µg/mL
[4]; mutagenesis treatments for 17 times
  Concentration of Ofloxacin: 156 µg/mL
[4]; mutagenesis treatments for 18 times
  Concentration of Ofloxacin: 168 µg/mL
[4]; mutagenesis treatments for 19 times
  Concentration of Ofloxacin: 180 µg/mL
[4]; mutagenesis treatments for 20 times
  Concentration of Ofloxacin: 210 µg/mL
[4]; mutagenesis treatments for 21 times
  Concentration of Ofloxacin: 240 µg/mL
[4]; mutagenesis treatments for 22 times
  Concentration of Ofloxacin: 270 µg/mL
[4]; mutagenesis treatments for 23 times
  Concentration of Ofloxacin: 300 µg/mL
[4]; mutagenesis treatments for 24 times
  Concentration of Ofloxacin: 320 µg/mL
[4]; mutagenesis treatments for 25 times
  Concentration of Ofloxacin: 330 µg/mL
[4]; mutagenesis treatments for 26 times
  Concentration of Ofloxacin: 340 µg/mL
[4]; mutagenesis treatments for 27 times
  Concentration of Ofloxacin: 350 µg/mL
[4]; mutagenesis treatments for 28 times
  Concentration of Ofloxacin: 360 µg/mL
[4]; mutagenesis treatments for 29 times
  Concentration of Ofloxacin: 370 µg/mL
[4]; mutagenesis treatments for 30 times
  Concentration of Ofloxacin: 380 µg/mL
[4]; mutagenesis treatments for 31 times
  Concentration of Ofloxacin: 400 µg/mL
[4]; mutagenesis treatments for 32 times
  Concentration of Ofloxacin: 425 µg/mL
[4]; mutagenesis treatments for 33 times
  Concentration of Ofloxacin: 450 µg/mL
[4]; mutagenesis treatments for 34 times
  Concentration of Ofloxacin: 475 µg/mL
[4]; mutagenesis treatments for 35 times
  Concentration of Ofloxacin: 500 µg/mL
